Results from ChEMBL document CHEMBL1201862, “PubChem BioAssay data set” (2004).
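Interpolation was linear, between the two tested concentrations surrounding the appropriate level; five concentrations were tested over 48 hours in 96-well plates. The concentration for 50% growth inhibition is given as GI50.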 Activity calls are given as the source filed them. No stated cut-off is given here; in the data, active = GI50 up to about 1.1 µM and inactive = higher.

Assays:
Test in all cases: NCI anticancer screen, dose series, 48 h
786-0 = tested on: 786-0
A549 = tested on: A549
CAKI-1 = tested on: CAKI-1
HT-29 = tested on: HT-29
K562 = tested on: K562
MOLT-4 = tested on: MOLT-4
NCI-H522 = tested on: NCI-H522
OVCAR-5 = tested on: OVCAR-5
SK-MEL-28 = tested on: SK-MEL-28
SK-OV-3 = tested on: SK-OV-3
SW-620 = tested on: SW-620
UACC-257 = tested on: UACC-257
UACC-62 = tested on: UACC-62
UO-31 = tested on: UO-31
HCC 2998 = tested on: HCC 2998
RPMI-8226 = tested on: RPMI-8226

Structure (SMILES)	GI50 (786-0)	GI50 (A549)	GI50 (CAKI-1)	GI50 (HT-29)	GI50 (K562)	GI50 (MOLT-4)	GI50 (NCI-H522)	GI50 (OVCAR-5)	GI50 (SK-MEL-28)	GI50 (SK-OV-3)	GI50 (SW-620)	GI50 (UACC-257)	GI50 (UACC-62)	GI50 (UO-31)	GI50 (HCC 2998)	GI50 (RPMI-8226)
Cc1ccc2nc3c(Cl)cc(=O)cc-3sc2c1	19.8 µM (inactive)	19.5 µM (inactive)	27.4 µM (inactive)	29.4 µM (inactive)	17.6 µM (inactive)	10.9 µM (inactive)	16.7 µM (inactive)	> 10 µM (inactive)	35 µM (inactive)	> 10 µM (inactive)	21.6 µM (inactive)	20.2 µM (inactive)	15.9 µM (inactive)	34 µM (inactive)		
N=C(CC(=O)Nc1ccc(Cl)cc1)Nc1ccccc1	> 100 µM (inactive)	> 100 µM (inactive)	> 100 µM (inactive)	> 100 µM (inactive)	> 100 µM (inactive)	> 100 µM (inactive)	> 100 µM (inactive)	> 100 µM (inactive)	> 100 µM (inactive)	> 100 µM (inactive)	> 100 µM (inactive)	> 100 µM (inactive)	> 100 µM (inactive)	> 100 µM (inactive)	> 100 µM (inactive)	
COc1cc2ccnc(-c3c4ccccc4c(N)c4c(OC)c(OC)ccc34)c2cc1OC	2.65 µM (inactive)	4.17 µM (inactive)	2.65 µM (inactive)	2.64 µM (inactive)	1.55 µM (inactive)	1.49 µM (inactive)	3.16 µM (inactive)		2.36 µM (inactive)	7.13 µM (inactive)	2.28 µM (inactive)	2.32 µM (inactive)	2.79 µM (inactive)	3.18 µM (inactive)	2.62 µM (inactive)	
COc1cc(C(=O)C/C(CCC(=O)Nc2ccccc2[N+](=O)[O-])=N\NC(=O)C(N)=O)ccc1O	> 100 µM (inactive)	> 100 µM (inactive)	> 100 µM (inactive)	> 100 µM (inactive)	> 100 µM (inactive)	> 100 µM (inactive)		> 100 µM (inactive)	> 100 µM (inactive)	> 100 µM (inactive)	> 100 µM (inactive)	> 100 µM (inactive)	> 100 µM (inactive)	> 100 µM (inactive)		
Cc1cc(C)c(C(=O)c2no[n+]([O-])c2C(=O)c2c(C)cc(C)c(Br)c2C)c(C)c1Br	15.1 µM (inactive)	13.8 µM (inactive)	11.4 µM (inactive)	12.3 µM (inactive)		4.65 µM (inactive)	10.9 µM (inactive)	16 µM (inactive)	14.4 µM (inactive)	20.7 µM (inactive)	12.9 µM (inactive)	> 10 µM (inactive)	10.7 µM (inactive)	7.67 µM (inactive)		10.2 µM (inactive)
COc1cc(C2c3cc4c(cc3[C@@H](Nc3ccc(N(C)C)cc3)[C@H]3COC(=O)C23)OCO4)cc(OC)c1O (some centres not stated)	0.228 µM (active)	0.0871 µM (active)	0.141 µM (active)	1.13 µM (inactive)	0.537 µM (active)	0.108 µM (active)	0.873 µM (active)	0.818 µM (active)	3.79 µM (inactive)	0.212 µM (active)	0.807 µM (active)	2.23 µM (inactive)	0.232 µM (active)	0.607 µM (active)	1.27 µM (inactive)	
COc1cccc(C(=O)C2C(=O)N(C)CCc3ccccc32)c1OC (configuration not stated)	> 100 µM (inactive)	> 100 µM (inactive)	> 100 µM (inactive)	> 100 µM (inactive)	> 100 µM (inactive)	> 100 µM (inactive)	> 100 µM (inactive)		> 100 µM (inactive)	> 100 µM (inactive)	> 100 µM (inactive)	> 100 µM (inactive)	> 100 µM (inactive)	> 100 µM (inactive)		> 100 µM (inactive)
CCCCCCCCCCCc1nnc(N)o1	> 100 µM (inactive)	> 100 µM (inactive)		> 100 µM (inactive)	51.5 µM (inactive)	26.6 µM (inactive)	67 µM (inactive)	> 100 µM (inactive)	> 100 µM (inactive)	> 100 µM (inactive)	> 100 µM (inactive)	> 100 µM (inactive)	> 100 µM (inactive)	13.6 µM (inactive)	> 100 µM (inactive)	> 100 µM (inactive)
CC(=O)OCC1OC(n2cccnc2=O)C(OC(C)=O)C1OC(C)=O (configuration not stated)	> 100 µM (inactive)	> 100 µM (inactive)	> 100 µM (inactive)	> 100 µM (inactive)	> 100 µM (inactive)	> 100 µM (inactive)	> 100 µM (inactive)	> 100 µM (inactive)	> 100 µM (inactive)	> 100 µM (inactive)	> 100 µM (inactive)	> 100 µM (inactive)	> 100 µM (inactive)	> 100 µM (inactive)		> 100 µM (inactive)
O=c1c2cc(Br)cc(Br)c2nc(CCCl)n1-c1ccc(O)c([N+](=O)[O-])c1	18.3 µM (inactive)	15.5 µM (inactive)		20.6 µM (inactive)	33.3 µM (inactive)	23.8 µM (inactive)	9.66 µM (inactive)	18.9 µM (inactive)	19.7 µM (inactive)	15.8 µM (inactive)	19.4 µM (inactive)	15.1 µM (inactive)	22.5 µM (inactive)	19.7 µM (inactive)	18.5 µM (inactive)	30.2 µM (inactive)
C/C(CC(=O)CCCC(=O)Nc1ccc(Cl)cc1Cl)=N/NC(=O)CC#N	> 100 µM (inactive)	> 100 µM (inactive)	> 100 µM (inactive)	> 100 µM (inactive)	> 100 µM (inactive)	> 100 µM (inactive)		> 100 µM (inactive)	> 100 µM (inactive)	> 100 µM (inactive)	> 100 µM (inactive)	> 100 µM (inactive)	> 100 µM (inactive)	> 100 µM (inactive)	> 100 µM (inactive)	> 100 µM (inactive)
O=C(O)c1ccc2c(c1)C(=O)N(c1ccc(S(=O)(=O)c3ccc(N4C(=O)c5ccc(C(=O)O)cc5C4=O)cc3)cc1)C2=O	> 100 µM (inactive)	> 100 µM (inactive)	> 100 µM (inactive)	> 100 µM (inactive)	> 100 µM (inactive)	> 100 µM (inactive)	> 100 µM (inactive)	> 100 µM (inactive)	> 100 µM (inactive)	> 100 µM (inactive)	> 100 µM (inactive)	> 100 µM (inactive)	> 100 µM (inactive)	> 100 µM (inactive)		> 100 µM (inactive)
COP12(OC)NC(=O)OC1(C(F)(F)F)c1ccccc1O2 (configuration not stated)	> 100 µM (inactive)	> 100 µM (inactive)		> 100 µM (inactive)	> 100 µM (inactive)	> 100 µM (inactive)	> 100 µM (inactive)		> 100 µM (inactive)	> 100 µM (inactive)		> 100 µM (inactive)	> 100 µM (inactive)			
OC12c3ccccc3C1(N1CCOCC1)CCCCC21OCCCO1 (configuration not stated)	> 100 µM (inactive)	> 100 µM (inactive)	> 100 µM (inactive)	> 100 µM (inactive)	> 100 µM (inactive)	> 100 µM (inactive)	> 100 µM (inactive)	> 100 µM (inactive)	> 100 µM (inactive)	> 100 µM (inactive)		> 100 µM (inactive)	> 100 µM (inactive)			> 100 µM (inactive)
